Here are results for one compound from patent publication US11758905B2, “Amphotericin B and β-1,3-glucanase loaded bi-functional nano-system with both targets, preparation method and application thereof” (QINGDAO AGRICULTURAL UNIVERSITY, priority 2021, dated 2023).

Assay type in all cases: cell-based
For one assay, the system named is Candida albicans BF 1. The assay is described as follows: Minimum inhibitory concentration determination. Conditions: clinical isolate BF 1; 24 h, 37° C. As to the method:
(§1) Fungus strain: Candida albicans DAY185; 3 clinical isolates of Candida albicans, obtained from Medical University of Vienna, named as Candida albicans BF 1, BF 2 and BF 3.
(§2) 100 μl of Candida albicans (1×10^6 CFU/mL) is added to a 96-pore plate containing different concentrations (2, 1, 0.5, 0.25, 0.125, 0.0625 or 0 μg/mL) of free AmpB and CSNP-AmpB-Gls. The micropore plate is rotated at a rotation speed of 150 rpm and incubated at 37° C. for 24 h. The minimum inhibitory concentration is defined as the minimum AmpB concentration at which visible growth cannot be detected.

For a further assay, the system named is Candida albicans BF 2. As to the kind of experiment: Minimum inhibitory concentration determination. The conditions noted are these: clinical isolate BF 2; 24 h, 37° C. As for the experimental part: as §1, §2
A further assay relates to Candida albicans BF 3. As to the kind of experiment: Minimum inhibitory concentration determination. Conditions: clinical isolate BF 3; 24 h, 37° C. As to the method:
as §1, §2

The subject of the next assay is Candida albicans DAY185. The assay is described as follows: Minimum inhibitory concentration determination. The conditions noted are these: strain DAY 185; 24 h, 37° C.; minimum AmpB concentration without visible growth. As for the experimental part:
as §1, §2

In assay [1] the test system is Candida albicans biofilm on silica gel. As to the kind of experiment: Influence on medical silica gel surface biofilm (CLSM viable/dead staining, SEM). As for the experimental part:
The biofilm on a silica gel is treated by free AmpB and NPs by following the method described above. The biofilm structure is studied through a scanning electron microscope. The biofilm survivability is observed with CLSM, and viable/dead fungus staining kit is used for staining, […]

Regarding `C[C@@H]1[C@H](O)[C@@H](C)/C=C/C=C/C=C/C=C/C=C/C=C/C=C/[C@H](O[C@@H]2O[C@H](C)[C@@H](O)[C@H](N)[C@@H]2O)C[C@@H]2O[C@](O)(C[C@@H](O)C[C@@H](O)[C@H](O)CC[C@@H](O)C[C@@H](O)CC(=O)O[C@H]1C)C[C@H](O)[C@H]2C(=O)O` [AmpB, amphotericin B], the “AmpB MIC” value worked out at 2 µg/mL with Candida albicans BF 1, 2 µg/mL in the assay with Candida albicans BF 2, 4 µg/mL in the assay on Candida albicans BF 3 and 1 µg/mL in the assay with Candida albicans DAY185. For the same compound, the “biofilm structure change by SEM” value in assay [1] (silica gel, FIG. 6) was “significantly reduces fungus colonization”. Further, the “cell viability of the biofilm on silica gel by CLSM” value in assay [1] (viable/dead staining, FIG. 5) is on record as “green (viable cells) is significantly reduced”.
